{"source": "patent US20150307841A1", "about": "“Composition for Promoting Differentiation and Proliferation of Neural Stem Cell and Neural Precursor Cell” (priority 2014, published 2015)", "assay_type_in_all_cases": "in vivo, rat", "key": {"[1]": {"tested_on": "memory-deficient model rats", "test": "Y-maze test in ibotenic acid-induced memory-deficient model rats", "source_text": "(§1) Ibotenic acid is a neurotoxin present in mushrooms and is known to cause powerful damage to neurons when directly injected into the brain of mice or rats. In particular, because senile plaques and neuronal cell death appear in the entorhinal cortex and hippocampus in early Alzheimer's disease patients (Ueki A et al. J Neurol Sci, 1994), memory-deficient model rats were generated by injecting ibotenic acid (IBO) into the entorhinal cortex. The surgical protocol followed Heo H et al.'s method (J Ethnopharmacol, 2009) with some modifications. In the model animals, the injection of ibotenic acid induces cell death not only in the entorhinal cortex but also in the CA and DG regions of the hippocampus and impairs hippocampus-related learning and memory abilities.\nThe 6-week-old rats were anesthetized with equithesin (350 mM pentobarbital sodium, 250 mM chloral hydrate, 85 mM MgSO4 and 40% propylene glycol in 10% ethanol, 2 mL/kg). To induce cell death in the dentate gyrus and hippocampus in addition to the entorhinal cortex, ibotenic acid (1.5 μL per animal, 1 mg/mL) was injected into the entorhinal cortex as follows. The rat was placed in a stereotaxic device (Stoelting Co., Wood Dale, Ill., USA) with the incisor bar 3.4 mm below the interaural line. The needle was positioned 10° right to the midsaggital plane. Then, ibotenic acid was injected at 3 locations into the entorhinal cortex and medial entorhinal cortex at a rate of 0.35 μL/min (first, AP: 8.4 mm, ML: 4.8 mm, DV: 4.6-4.8 mm; second, AP: 8.4 mm, ML: 4.8 mm, DV: 2.6-2.8 mm; third, AP: 8.8 mm, ML: 3.65 mm, DV: 4.8 mm). […]\nThe maze was made of black-colored acryl and was positioned at equal angles. […] Arm entry was recorded when the hind paws were completely placed in the arm. Consecutive entry into 3 arms in an alternative order was defined as successive entries on overlapping triplet sets, and alternation percentage was calculated as the ratio of actual to possible alternations (defined as the total number of arm entries minus 2), multiplied by 100. […]"}, "[2]": {"tested_on": "memory-deficient model rats", "test": "Morris water maze test in memory-deficient model rats", "conditions": "Experimental Example 2", "source_text": "as §1\nThe 6-week-old rats were anesthetized with equithesin (350 mM pentobarbital sodium, 250 mM chloral hydrate, 85 mM MgSO4 and 40% propylene glycol in 10% ethanol, 2 mL/kg). To induce cell death in the dentate gyrus and hippocampus in addition to the entorhinal cortex, ibotenic acid (1.5 μL per animal, 1 mg/mL) was injected into the entorhinal cortex as follows. The rat was placed in a stereotaxic device (Stoelting Co., Wood Dale, Ill., USA) with the incisor bar 3.4 mm below the interaural line. The needle was positioned 10° right to the midsaggital plane. […]\nFor each trial, the rat was allowed to swim for a maximum of 60 seconds to find the platform and to rest for 1 minute on the platform upon success. […] The swimming time and length of the trial were recorded and monitored using a video camera. […] The captured video images were analyzed by a video tracking system (EthoVision Water Maze program, Noldus Information Technology, Wageningen, the Netherlands). The analyzed information included the swimming time in the target quadrant and the number of virtual platform crossings to find the removed platform. […]"}, "[3]": {"tested_on": "newly born neural precursor cells in hippocampal tissue slices", "test": "Immunohistochemical analysis of BrdU and subtype markers 4 weeks after oral administration (Experimental Example 2)", "design": "Number of BrdU-positive cells and newly born dentate granular cells (DGCs) versus IBO group / Number of cells expressing both NeuN and BrdU versus ibotenic acid-administered group / Cholinergic neurons (total endogenous ChAT-positive cells) at 4 weeks versus 1 week after oral administration: dose or concentration left out as unconfirmed", "source_text": "In order to confirm the survival and differentiation of newly born neural precursor cells 4 weeks after the oral administration of soyasaponin I, it was observed whether the BrdU-expressing cells express a mature neuron marker and cell subtype markers (NeuN, VGluT1, GAD67) simultaneously.\nAfter conducting the 3 behavioral tests, the rats were sacrificed for immunohistochemical analysis. Over 5 animals from each group were used for the immunohistochemical analysis.\nFollowing the same procedure as described in (4) of Experimental Example 2, incubation was performed at 37° C. for 30 minutes in 2 N HCl after permeabilization in 0.5% Triton X-100 for 20 minutes for double staining of BrdU/subtype cell markers ([…], VGluT1, NeuN).\nIn the immunohistochemical analysis, the number of the cells immnunostained against each antibody was counted from 5 or 6 hippocampal coronal sections. For each staining analysis, every fifth cryosections of the hippocampal region of brain tissues (AP: bregma −4.5 to −4.3 mm) were taken for immunostaining. The number of the immnunostained cells was represented as an average of number of cells in the hippocampal region of one brain slice.\nThe number of the VGluT1- and GAD-positive cells in the brain slice samples 1 week and 4 weeks after the administration of soyasaponin I was presented per microscopic field (×400-VGluT1, ×800-GAD67) and the number of the ChAT-positive cells was presented per each hippocampal region (10-12 confocal laser microscopic fields). 5-11 animals were used per group. Western blotted membranes were analyzed using the multi-gauge, bio-imaging program on LAS-4000 Mini (Fujifilm Life Science, Stamford, Conn., USA). Densitometeric analysis of the expression ratios of VGluT1/β-actin, GAD65/67/β-actin and ChAT/β-actin was normalized to the vehicle group."}, "[4]": {"conditions": "4 weeks after oral administration"}, "[5]": {"conditions": "soyasaponin I 10 mg/g group (so in the source), 4 weeks after oral administration"}, "[6]": {"conditions": "soyasaponin I group (so in the source), 4 weeks after oral administration"}}}
{"smiles": "C[C@@H]1O[C@@H](O[C@H]2[C@H](O[C@H]3[C@H](O[C@H]4CC[C@@]5(C)[C@@H](CC[C@]6(C)[C@@H]5CC=C5[C@@H]7CC(C)(C)C[C@@H](O)[C@]7(C)CC[C@]56C)[C@@]4(C)CO)O[C@H](C(=O)O)[C@@H](O)[C@@H]3O)O[C@H](CO)[C@H](O)[C@@H]2O)[C@H](O)[C@H](O)[C@H]1O", "note": "[soyasaponin I]", "values": [{"measurement": "Y-maze number of total entries", "setting": "[1]; 10 mg/kg oral, tests 2 weeks after administration (Experimental Example 2)", "result": "not significantly different"}, {"measurement": "Y-maze spontaneous alterations (decreased memory of IBO group)", "setting": "[1]; Experimental Example 1, tests immediately after administration, group 1 (Soya-I)", "result": "improved"}, {"measurement": "Y-maze spontaneous alterations, increase compared with the non-soyasaponin I-administered group (IBO)", "setting": "[1]; soyasaponin I 10 mg/kg oral, tests 2 weeks after administration (Experimental Example 2)", "result": 78.57, "unit": "%"}, {"measurement": "Morris water maze number of crossings across the target probe", "setting": "[2]; probe trial session", "result": "recovery to almost those of the normal group"}, {"measurement": "Morris water maze swimming time in the target quadrant", "setting": "[2]; probe trial session", "result": "recovery to almost those of the normal group"}, {"measurement": "Morris water maze escape latency time compared to the ibotenic acid-administered group", "setting": "[2]; training trial, third and fourth days", "result": "decreased"}, {"measurement": "Number of BrdU-positive cells in hippocampal tissue slices at 4 weeks versus 1 week after oral administration", "setting": "[3]; [4]", "result": "reduced to less than half"}, {"measurement": "Ratio of the BrdU-positive cells that express VGluT1, NeuN or GAD67 at the same time", "setting": "[3]; [4]", "result": "no significant difference"}, {"measurement": "BrdU-positive cells among hippocampal cells expressing GFAP, TH and ChAT", "setting": "[3]; 4 weeks after oral administration, any group", "result": "barely detected"}, {"measurement": "Number of BrdU-positive cells expressing GAD67 versus IBO group", "setting": "[3]; [5]", "result": 2.8, "unit": "times"}, {"measurement": "Number of BrdU-positive cells expressing VGluT1 versus IBO group", "setting": "[3]; [5]", "result": "higher"}, {"measurement": "Cholinergic neurons (total endogenous ChAT-positive cells) at 4 weeks versus 1 week after oral administration", "setting": "[3]; soyasaponin I group (so in the source)", "result": "maintained at a similar level"}, {"measurement": "Number of BrdU-positive cells and newly born dentate granular cells (DGCs) versus IBO group", "setting": "[3]; [6]", "result": "approximately 3.5 fold"}, {"measurement": "Number of cells expressing both NeuN and BrdU versus ibotenic acid-administered group", "setting": "[3]; [6]", "result": 3, "unit": "times"}]}
